According to the supplement of paper PMC11061612:

Tests used:
Assay in all cases: combination Emax (second highest fraction inhibited in the dose matrix, 72 h); higher = more inhibition; extreme values may be limits of the assay
[1] = tested on: ES-2 (Ovarian Carcinoma)
In short: (§1)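 Cell lines in DMEM/F12 or RPMI with 10% FBS were plated in 1536-well plates, held 24 hours at 37°C, 5% CO2, then given two-drug dose matrices for 72 hours (DMSO typically 0.2%). Viability was read by CellTiter-Glo 2.0 luminescence and scaled as inhibition from 0 (vehicle wells) to 1 (blank wells). Combination Emax is the second-highest inhibition in the matrix; Bliss excess is observed combination effect minus expected EA + EB − EA·EB, EA and EB being single-agent effects.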

[2] = tested on: FLO-1 (Esophageal Adenocarcinoma)
In short: as §1

[3] = tested on: HTC-C3 (Thyroid Gland Carcinoma)
In short: as §1

[4] = tested on: HuO-3N1 (Osteosarcoma)
In short: as §1

[5] = tested on: JHH-1 (Hepatocellular Carcinoma)
In short: as §1

[6] = tested on: KYM-1 (Rhabdomyosarcoma)
In short: as §1

[7] = tested on: LAMA-84 (Chronic Myelogenous Leukemia)
In short: as §1

[8] = tested on: NCI-H1623 (Lung Adenocarcinoma)
In short: as §1

[9] = tested on: NCI-H196 (Small Cell Lung Carcinoma)
In short: as §1

[10] = tested on: NCI-H810 (Non-Small Cell Lung Carcinoma)
In short: as §1

[11] = tested on: NKM-1 (Acute Myeloid Leukemia)
In short: as §1

[12] = tested on: OCI-AML5 (Acute Myeloid Leukemia)
In short: as §1

[13] = tested on: OVTOKO (Ovarian Carcinoma)
In short: as §1

[14] = tested on: PANC-02-03 (Pancreatic Carcinoma)
In short: as §1

[15] = tested on: PC-14 (Lung Adenocarcinoma)
In short: as §1

[16] = tested on: RL95-2 (Endometrial Carcinoma)
In short: as §1

[17] = tested on: RPMI-8866 (Chronic Myelogenous Leukemia)
In short: as §1

[18] = tested on: SK-MM-2 (Plasma Cell Myeloma)
In short: as §1

[19] = tested on: SNU-175 (Colorectal Carcinoma)
In short: as §1

[20] = tested on: SW684 (Other Solid Carcinomas)
In short: as §1

SMILES	combination Emax [1]	combination Emax [2]	combination Emax [3]	combination Emax [4]	combination Emax [5]	combination Emax [6]	combination Emax [7]	combination Emax [8]	combination Emax [9]	combination Emax [10]	combination Emax [11]	combination Emax [12]	combination Emax [13]	combination Emax [14]	combination Emax [15]	combination Emax [16]	combination Emax [17]	combination Emax [18]	combination Emax [19]	combination Emax [20]
CN(CCO)CC[C@H](CSc1ccccc1)Nc1ccc(S(=O)(=O)NC(=O)c2ccc(N3CCC([C@@H](O)c4ccccc4-c4ccc(Cl)cc4)CC3)cc2)cc1S(=O)(=O)C(F)(F)F [AZD4320] + CN(C)CCCOc1ccc(-c2ccc3ncc4c(c3c2)n(C2CCOCC2)c(=O)n4C)cn1 [AZD0156] (first compound max 1 µM, 7x7, partner max 1 µM)	0.15	0.386	0.37	0.164	0.444	0.14	0.667	0.191	0.171	0.453	1	1	0.25	0.138	0.17	0.124	0.552	1	0.467	0.19
Cn1cnc2c(F)c(Nc3ccc(Br)cc3Cl)c(C(=O)NOCCO)cc21 [Selumetinib] + C=CCn1c(=O)c2cnc(Nc3ccc(N4CCN(C)CC4)cc3)nc2n1-c1cccc(C(C)(C)O)n1 [AZD1775] (first compound max 10 µM, partner max 1 µM)	0.66	0.792	0.691	0.259	0.599	0.591	0.973	0.607	0.347	0.542	0.875	0.944	0.452	0.572	0.928	0.587	0.956	0.236	0.718	0.152
COc1cccc(OCCCN)c1-c1cc(Nc2cnc(C#N)cn2)n[nH]1 [Prexasertib] + CCc1c2c(nc3ccc(O)cc13)-c1cc3c(c(=O)n1C2)COC(=O)[C@]3(O)CC [SN-38] (first compound max 1 µM, 7x7, partner max 0.3 µM)	0.988	0.918	0.966	0.808	0.75	0.97	1	0.987	0.659	0.98	0.938	1	0.532	0.756	0.894	0.979	1	0.875	0.734	0.642
CC(=O)c1c(C)c2cnc(Nc3ccc(N4CCNCC4)cn3)nc2n(C2CCCC2)c1=O [Palbociclib] + CC1(C)CCC(CN2CCN(c3ccc(C(=O)NS(=O)(=O)c4ccc(NCC5CCOCC5)c([N+](=O)[O-])c4)c(Oc4cnc5[nH]ccc5c4)c3)CC2)=C(c2ccc(Cl)cc2)C1 [Venetoclax] (first compound max 10 µM, 7x7, partner max 1 µM)	0.501	0.495	0.189	0.146	0.138	0.863	0.496	0.248	0.0487	0.0599	0.946	0.837	0.336	0.148	0.204	0.226	0.754	1	0.562	0.147
CC1(C)CCC(CN2CCN(c3ccc(C(=O)NS(=O)(=O)c4ccc(NCC5CCOCC5)c([N+](=O)[O-])c4)c(Oc4cnc5[nH]ccc5c4)c3)CC2)=C(c2ccc(Cl)cc2)C1 [Venetoclax] + COc1cc(Nc2ncc3c(n2)-c2ccc(Cl)cc2C(c2c(F)cccc2OC)=NC3)ccc1C(=O)O [Alisertib] (first compound max 1 µM, 7x7, partner max 10 µM)	0.983	0.514	0.365	0.372	0.567	0.21	0.934	0.391	0.113	0.53	0.98	1	0.484	0.292	0.741	0.588	0.89	1	0.818	0.253
Cc1c2c(nn1C)CSCc1cc(n(C)n1)CSc1cc(c3ccccc3c1)OCCCc1c(C(=O)O)n(C)c3c-2c(Cl)ccc13 [AZD5991] + C[C@@H]1COCCN1C2=NC(=NC(=C2)C3(CC3)[S@](=N)(=O)C)C4=C5C=CNC5=NC=C4 [AZD6738] (first compound max 1 µM, 7x7, partner max 10 µM)	0.858	0.686	0.686	0.894	0.686	0.924	0.966	0.997	0.367	0.904	0.995	1	0.452	0.528	0.855	1	0.973	0.637	0.862	0.428
CC1(C)CCC(CN2CCN(c3ccc(C(=O)NS(=O)(=O)c4ccc(NCC5CCOCC5)c([N+](=O)[O-])c4)c(Oc4cnc5[nH]ccc5c4)c3)CC2)=C(c2ccc(Cl)cc2)C1 [Venetoclax] + C=CCn1c(=O)c2cnc(Nc3ccc(N4CCN(C)CC4)cc3)nc2n1-c1cccc(C(C)(C)O)n1 [AZD1775] (first compound max 1 µM, partner max 1 µM)	0.644	0.84	0.341	0.386	0.578	0.314	0.964	0.577	0.574	0.781	0.995	1	0.529	0.494	0.93	0.475	0.951	1	0.553	0.604
COc1cc2c(cc1OCCCCCOc1cc3c(cc1OC)C(=O)N1C=C(C)C[C@H]1C=N3)N=C[C@@H]1CC(C)=CN1C2=O [SG3199] + O=C(c1cc(Cc2n[nH]c(=O)c3ccccc23)ccc1F)N1CCN(C(=O)C2CC2)CC1 [Olaparib] (first compound max 0.001 µM, 7x7, partner max 10 µM)	0.165	0.186	0.246	0.219	0.136	0.169	0.226	0.376	0.106	0.131	0.663	0.182	0.111	0.0277	0.179	0.264	0.263	0.137	0.112	0.0316
CC1(C)CCC(CN2CCN(c3ccc(C(=O)NS(=O)(=O)c4ccc(NCC5CCOCC5)c([N+](=O)[O-])c4)c(Oc4cnc5[nH]ccc5c4)c3)CC2)=C(c2ccc(Cl)cc2)C1 [Venetoclax] + Cc1cc2ncnn2cc1Nc1ncc2c(n1)n(C1CCOCC1)c(=O)n2C [AZD7648] (first compound max 1 µM, 7x7, partner max 10 µM)	0.249	0.249	0.205	0.228	0.199	0.159	0.299	0.371	0.121	0.221	0.959	0.943	0.381	0.208	0.293	0.194	0.316	1	0.131	0.273
CN(CCO)CC[C@H](CSc1ccccc1)Nc1ccc(S(=O)(=O)NC(=O)c2ccc(N3CCC([C@@H](O)c4ccccc4-c4ccc(Cl)cc4)CC3)cc2)cc1S(=O)(=O)C(F)(F)F [AZD4320] + C[C@@H]1COCCN1C2=NC(=NC(=C2)C3(CC3)[S@](=N)(=O)C)C4=C5C=CNC5=NC=C4 [AZD6738] (first compound max 1 µM, 7x7, partner max 10 µM)	0.94	0.742	0.881	0.479	0.838	0.95	0.989	0.871	0.397	0.86	1	1	0.54	0.615	0.93	0.751	1	1	0.936	0.537
Cc1c2c(nn1C)CSCc1cc(n(C)n1)CSc1cc(c3ccccc3c1)OCCCc1c(C(=O)O)n(C)c3c-2c(Cl)ccc13 [AZD5991] + C=CCn1c(=O)c2cnc(Nc3ccc(N4CCN(C)CC4)cc3)nc2n1-c1cccc(C(C)(C)O)n1 [AZD1775] (first compound max 1 µM, partner max 1 µM)	0.842	0.891	0.454	1	0.721	0.755	0.968	0.959	0.508	0.949	0.979	1	0.618	0.594	0.921	1	0.978	0.707	0.868	0.273
NC1(C(=O)N[C@@H](CCO)c2ccc(Cl)cc2)CCN(c2ncnc3[nH]ccc23)CC1 [Capivasertib] + CCN(CCO)CCCOc1ccc2c(Nc3cc(CC(=O)Nc4cccc(F)c4)[nH]n3)ncnc2c1 [AZD2811] (first compound max 10 µM, 7x7, partner max 1 µM)	0.413	0.415	0.405	0.494	0.232	0.559	0.612	0.555	0.358	0.534	0.779	0.974	0.568	0.24	0.505	1	0.562	0.239	0.846	0.617
